In patent publication US20240189201A1, “HAIR SERUM AND SUPPLEMENT” (priority 2021, published 2024):

Test: Comparison of hair serum compositions formulated with different crystalline CBDs (type A vs type B)
Conditions: hair serum according to Example 2, differing only in the crystalline CBD used
Procedure: Two hair serum compositions are prepared according to Example 2, the only difference being that the crystalline CBD used in the formulation is either of type A (needle-like crystals; FIG. 1) or type B (bunch/cluster-like; FIG. 2).
Type A crystalline CBD is sourced from Enecta, while type B CBD is sourced from Pharma Hemp.

## C=C(C)[C@@H]1CCC(C)=C[C@H]1c1c(O)cc(CCCCC)cc1O [type A CBD, Cannabidiol]
  Activity / potency of CBD in hair serum, type A versus type B: significantly more active than type B CBD
Listed as crystal structure A
  Activity / potency of CBD in hair serum, type A versus type B: significantly more potent than CBD with a different crystal structure
